# Test results: PubChem BioAssay AID1963427 (Molecular Pharmacology Branch, DTP, NCI, 2024)
# Test system: 317291-083-R-J1-PDC complex spheroid growth
# Assay: Anticancer human tumor 317291-083-R-J1-PDC patient-derived soft tissue sarcoma cell line growth inhibition [Asc]
# Conditions: for IC50: curve of first compound; for viability, T/C: stronger effect = lower value
# Procedure: Multicellular complex tumor spheroid response to apoptosis pathway targeting inhibitors Alrizomadlin, Pelcitoclax, and Dasminapant in combination with a variety of drugs and investigational agents in selected tumor cell lines
# The MDM2 inhibitor alrizomadlin, the Bcl-2/Bcl-xL inhibitor pelcitoclax, and the IAPs inhibitor dasminapant were evaluated both individually and in combination with standard of care and investigational anticancer small molecules within a complex spheroid model of solid tumors. . Complex spheroids include a stromal component modeled by human endothelial cells (HUVEC) and fibroblasts modeled by human mesenchymal stem cells (MSCs). The concentration ranges selected for each drug and investigational agent were based upon clinically achievable concentrations if the clinical Cmax of the agent was known.
# Compounds. The drugs and investigational agents: alrizomadlin (APG-115; NSC831270), pelcitoclax (APG-1252; NSC835773), dasminapant (APG-1387;NSC834197), TAK-243 (NSC785004), copanlisib (NSC809693), olaparib (NSC753686), talazoparib (NSC767125), cobimetinib (NSC 768068), eltanexor (KPT-8602, NSC 794443), abemaciclib (NSC 768073), sotorasib (NSC818433), adagrasib (NSC 831453), MRTX-1133 (NSC 836407), Iadademestat (ORY1001, NSC 806812), and RMC-4630 (NSC839698), were obtained from the NCI Developmental Therapeutics Program Chemical Repository. The FDA-approved anticancer drug set is available from the Developmental Therapeutics Program at https://dtp.cancer.gov/organization/dscb/obtaining/available plates.htm. […] The stock solutions were prepared in dimethyl sulfoxide (DMSO, Sigma-Aldrich, St. Louis, MO, cat. D2650) at 800-fold the tested concentration and stored at -70 degrees C prior to their use. All drugs and investigational agents were tested over a range starting from a high concentration at or near the clinical Cmax and decreasing in half-log increments. If the clinical Cmax for an agent had not been determined, the highest concentration tested was 10 microM.
# The patient-derived cancer (PDC) cell lines include five colon adenocarcinomas: 186277-243-T-J2-PDC, 616215-338-R-J1-PDC, 439559-082-T-J2-PDC, 463943-066-T-J2-PDC, and 519858-162-T-J1-PDC; three pancreatic carcinomas: 323965-272-R-J2-PDC, 521955-158-R6-J3-PDC, and 521955-158-R2-J5-PDC; two uterine sarcomas: 327498-152-R-J2-PDC and 993429-296-R-J1-PDC; two rhabdomyosarcomas: 755483-174-R-J1-PDC and 772245-204-R-J1-PDC; two soft tissue sarcomas: 126254-015-R-J1-PDC and 494315-158-R-J1-PDC; two malignant fibrous histiocytomas: 317291-083-R-J1-PDC and 596521-263-R-J1-PDC; two breast carcinomas: 171881-019-R-J1-PDC and 885512-296-R-J2-PDC; and one ovarian carcinoma: 6556581-035-R-J-PDC were obtained from the NCI PDMR, (https://pdmr.cancer.gov). The established cell lines HSSY-2 synovial sarcoma (RRID:CVCL 8719), SYO-1 synovial sarcoma (RRID:CVCL_7146), MPNST malignant peripheral neural sheath tumor were obtained from the Sloan Kettering Institute. The following established cell lines were purchased from the American Type Culture Collection (ATCC, Manassas, VA), Sor the received from the NCI repository:, PANC-1 pancreatic carcinoma (CRL-1469, RRID:CVCL_0480), OVCAR-5 ovarian carcinoma (RRID:CVCL_1628), OVCAR-8 ovarian carcinoma (RRID:CVCL_1629), , MCF-7 breast carcinoma (CRL-12584, RRID:CVCL_0031), MDA-MB-231 breast carcinoma (CRL-12532, RRID:CVCL_0062), NCI-H1876 small cell lung carcinoma (CRL-5902, RRID:CVCL_1503), NCI-H510A small cell lung carcinoma (HTB-184, RRID:CVCL_1565), NCI-H1417 (CRL-5869, RRID:CVCL_1469), and NCI-H196 small cell lung carcinoma (CRL-5823, RRID:CVCL_1509). Dr. Peter Houghton (Greehey Children's Cancer Research Institute, University of Texas Health Science Center, San Antonio, TX) provided Rh-18 rhabdomyosarcoma (RRID:CVCL_1659). Pooled donor human umbilical vein endothelial cells (HUVEC, Lonza, cat. CC-2519) and human mesenchymal stem cells (hMSC, Lonza, cat. PT-2501) were purchased from Lonza (Walkersville, MD).
# Cell Culture. […]
# [1] = second compound 0.00949 µM, first compound 0.00316 µM
# [2] = second compound 0.00949 µM, first compound 0.01 µM
# [3] = second compound 0.00949 µM, first compound 0.0316 µM
# [4] = second compound 0.00949 µM, first compound 0.1 µM
# [5] = second compound 0.00949 µM, first compound 0.316 µM
# [6] = second compound 0.00949 µM, first compound 1 µM
# [7] = second compound 0.03 µM, first compound 0.00316 µM
# [8] = second compound 0.03 µM, first compound 0.01 µM
# [9] = second compound 0.03 µM, first compound 0.0316 µM
# [10] = second compound 0.03 µM, first compound 0.1 µM
# [11] = second compound 0.03 µM, first compound 0.316 µM
# [12] = second compound 0.03 µM, first compound 1 µM
# [13] = second compound 0.0949 µM, first compound 0.00316 µM
# [14] = second compound 0.0949 µM, first compound 0.01 µM
# [15] = second compound 0.0949 µM, first compound 0.0316 µM
# [16] = second compound 0.0949 µM, first compound 0.1 µM
# [17] = second compound 0.0949 µM, first compound 0.316 µM
# [18] = second compound 0.0949 µM, first compound 1 µM
# [19] = second compound 0.3 µM, first compound 0.00316 µM
# [20] = second compound 0.3 µM, first compound 0.01 µM
# [21] = second compound 0.3 µM, first compound 0.0316 µM
# [22] = second compound 0.3 µM, first compound 0.1 µM
# [23] = second compound 0.3 µM, first compound 0.316 µM
# [24] = second compound 0.3 µM, first compound 1 µM
# [25] = second compound 0.949 µM, first compound 0.00316 µM
# [26] = second compound 0.949 µM, first compound 0.01 µM
# [27] = second compound 0.949 µM, first compound 0.0316 µM
# [28] = second compound 0.949 µM, first compound 0.1 µM
# [29] = second compound 0.949 µM, first compound 0.316 µM
# [30] = second compound 0.949 µM, first compound 1 µM
# [31] = second compound 3 µM, first compound 0.00316 µM
# [32] = second compound 3 µM, first compound 0.01 µM
# [33] = second compound 3 µM, first compound 0.0316 µM
# [34] = second compound 3 µM, first compound 0.1 µM
# [35] = second compound 3 µM, first compound 0.316 µM
# [36] = second compound 3 µM, first compound 1 µM
# 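Also: compound exposure lasted seven days after spheroids formed for three days.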
# 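For viability, T/C in this document: 100% = DMSO vehicle control wells.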
structure (smiles),measurement,setting,value
CCN1CCN(Cc2ccc(Nc3ncc(F)c(-c4cc(F)c5nc(C)n(C(C)C)c5c4)n3)nc2)CC1 + CCN1C(C(=O)NC23CCC(C(=O)O)(CC2)CC3)C(c2cccc(Cl)c2F)C2(C(=O)Nc3cc(Cl)ccc32)C12CCCCC2,IC50,second compound 0.00949 µM,> 1000 nM
same,IC50,second compound 0.03 µM,> 1000 nM
same,IC50,second compound 0.0949 µM,814 nM
same,IC50,second compound 0.3 µM,> 1000 nM
same,IC50,second compound 0.949 µM,837 nM
same,IC50,second compound 3 µM,> 1000 nM
same,"viability, T/C",[1],95%
same,"viability, T/C",[2],95.8%
same,"viability, T/C",[3],100%
same,"viability, T/C",[4],115%
same,"viability, T/C",[5],91.2%
same,"viability, T/C",[6],55.4%
same,"viability, T/C",[7],99.7%
same,"viability, T/C",[8],101%
same,"viability, T/C",[9],97.9%
same,"viability, T/C",[10],103%
same,"viability, T/C",[11],80.1%
same,"viability, T/C",[12],53%
same,"viability, T/C",[13],97.7%
same,"viability, T/C",[14],89.3%
same,"viability, T/C",[15],97%
same,"viability, T/C",[16],112%
same,"viability, T/C",[17],88.4%
same,"viability, T/C",[18],41.6%
same,"viability, T/C",[19],100%
same,"viability, T/C",[20],93.1%
same,"viability, T/C",[21],80.6%
same,"viability, T/C",[22],86.4%
same,"viability, T/C",[23],68.1%
same,"viability, T/C",[24],79.6%
same,"viability, T/C",[25],106%
same,"viability, T/C",[26],96.7%
same,"viability, T/C",[27],79.1%
same,"viability, T/C",[28],91.1%
same,"viability, T/C",[29],73.1%
same,"viability, T/C",[30],44.5%
same,"viability, T/C",[31],77.5%
same,"viability, T/C",[32],77%
same,"viability, T/C",[33],78.9%
same,"viability, T/C",[34],72.2%
same,"viability, T/C",[35],56.6%
same,"viability, T/C",[36],60.9%
O=C(c1ccc(F)c(F)c1Nc1ccc(I)cc1F)N1CC(O)([C@@H]2CCCCN2)C1 + CCN1C(C(=O)NC23CCC(C(=O)O)(CC2)CC3)C(c2cccc(Cl)c2F)C2(C(=O)Nc3cc(Cl)ccc32)C12CCCCC2,IC50,second compound 0.00949 µM,540 nM
same,IC50,second compound 0.03 µM,448 nM
same,IC50,second compound 0.0949 µM,549 nM
same,IC50,second compound 0.3 µM,526 nM
same,IC50,second compound 0.949 µM,528 nM
same,IC50,second compound 3 µM,389 nM
same,"viability, T/C",[1],101%
same,"viability, T/C",[2],89%
same,"viability, T/C",[3],106%
same,"viability, T/C",[4],101%
same,"viability, T/C",[5],71.9%
same,"viability, T/C",[6],24.8%
same,"viability, T/C",[7],91.2%
same,"viability, T/C",[8],94.8%
same,"viability, T/C",[9],85%
same,"viability, T/C",[10],117%
same,"viability, T/C",[11],64.9%
same,"viability, T/C",[12],15.8%
same,"viability, T/C",[13],103%
same,"viability, T/C",[14],90.8%
same,"viability, T/C",[15],98.2%
same,"viability, T/C",[16],113%
same,"viability, T/C",[17],69.8%
same,"viability, T/C",[18],28.4%
same,"viability, T/C",[19],124%
same,"viability, T/C",[20],95.1%
same,"viability, T/C",[21],86.3%
same,"viability, T/C",[22],107%
same,"viability, T/C",[23],71.4%
same,"viability, T/C",[24],23%
same,"viability, T/C",[25],105%
same,"viability, T/C",[26],105%
same,"viability, T/C",[27],114%
same,"viability, T/C",[28],104%
same,"viability, T/C",[29],72.2%
same,"viability, T/C",[30],22.4%
same,"viability, T/C",[31],105%
same,"viability, T/C",[32],92.7%
same,"viability, T/C",[33],96.8%
same,"viability, T/C",[34],90.2%
same,"viability, T/C",[35],55.4%
same,"viability, T/C",[36],24.8%
